A word on the melting point: it is the temperature of the solid-liquid transition. As for `Cn1cc(-c2cc(-c3cnc4[nH]ccc4c3)ccn2)n(-c2ccc(C(C)(C)CN)cc2)c1=O`, the melting point turned out to be 91 °C.

Compound `O=C1C(=Cc2ccccc2)COc2ccccc21` had a melting point of 112 to 113 °C.

The compound `COc1cc2occ(C(=O)Nc3cccnc3)c2cc1Br` returned a melting point of 210 to 212 °C.

Consider `O=C(Cc1ccccn1)c1nc2ccccc2[nH]1`, for which the melting point was 202 °C.

As to `Cc1cc(C)c(N2CCCCC2=O)cc1NS(=O)(=O)C(F)(F)F`, the melting point is 260 to 266 °C.

For the compound `CC(C)CNC(=O)[C@H](C)C[C@H](O)[C@H](CC1CCCCC1)NC(=O)[C@H](Cc1cscn1)NC(=O)OC(C)(C)C`, the melting point lay in the range of 178 to 180 °C.

With `Cc1cccc(Cl)c1N1CCCN(C2CCC2)C1=S`, the melting point was 89 to 91 °C.

The compound `Cc1nnc(-c2ccc3c(=O)n(CC(C)C)c(CN)c(-c4ccccc4)c3c2)o1` gave a melting point of 179 to 181 °C.

Regarding `O=C=Nc1ccc(OCc2nc(Cl)ccc2Cl)cc1`, the melting point was in the range of 61.5 to 62.5 °C.

Take `COc1cc(OC)c(-c2nc(NC(=O)c3cc4cc(C)cc(C)c4n3CC(=O)O)sc2CCC2CCCCC2)cc1Br`: the melting point lay in the range of 221 to 222 °C.

Take `CCCc1ccc(S(=O)(=O)Nc2ccc3nc(C)c(C)nc3c2)cc1`: the melting point lay in the range of 198 to 199 °C.

The compound `CC1(C)Oc2ccc(S(C)(=O)=O)cc2[C@@H](N2CCCS2(=O)=O)[C@@H]1O` (relative stereo) gave a melting point of 220 to 221 °C.

In turn, `S=C(Cc1cccnc1)N1CCC(=C2c3ccc(Cl)cc3CCc3cccnc32)CC1` returned a melting point of 92 to 93 °C.

`COc1ccccc1C(=O)c1c(SC)oc2ccccc2c1=O` displayed a melting point of 145 °C.

With `O=C(Nc1ccccc1)c1cccc(Nc2ccccc2)c1`, the melting point lay within 134 to 135 °C.

`CS(=O)(=O)c1ccc(C(Cc2ccc(F)cc2Cl)C(=O)Nc2nc3ccccc3o2)cc1` (stereo not drawn) returned a melting point of 127 to 128 °C.

Compound `Nc1ccc(Cl)c(S(=O)c2ccccc2)c1` (stereo not drawn) returned a melting point of 152 to 155 °C.

The compound `CC(C)(Oc1ccc(OCc2ccccc2)cc1)C(=O)O` returned a melting point of 134 to 137 °C.

In turn, `CS(=O)(=O)Nc1cccc(Nc2nc(NCCO)c3nc[nH]c3n2)c1` came in with a melting point of 163 to 166 °C.

In turn, `CC(=O)NCC1CN(c2ccc(N3CCC(=CC#N)C(F)C3)c(F)c2)C(=O)O1` (stereo not drawn) showed a melting point of 138 to 140 °C.

`CSC(Oc1cc(Cl)c2ncc(Br)cc2c1)C(=O)NC(C)(C)C` (stereo not drawn) displayed a melting point of 160 to 161 °C.

`COc1ccc2c(c1)C(=O)N(C)CC(CCCl)O2` (stereo not drawn) returned a melting point of 98 to 100 °C.

Turning to `COC(=O)c1cc(C)cc(NC(=O)c2nnn[nH]2)c1O`, the melting point lay within 238 to 240 °C.

Turning to `Oc1c2c(c(O)c3ccccc13)CCCC2`, the melting point is 210 to 212 °C.

`CCOC(=O)/C=C/c1ccc(OCc2nc(C)c(C)nc2C)c(OC)c1` yielded a melting point of 112 °C.

Compound `NC(Cc1c[nH]c2cc(Cl)cc(Cl)c12)C(=O)OCCC(=O)OCc1ccccc1` (stereo not drawn) showed a melting point of 151 to 153 °C.

Turning to `C#Cc1ccc2cc(OC)ccc2c1`, the melting point was 111 to 112 °C.

`CC(=O)NCC1CCN(CCOc2ccccc2)CC1`: the melting point was 79 to 80 °C.

Turning to `CC(C)(C)C(O)C(=O)CCn1cncn1` (stereo not drawn), the melting point is 80 to 83 °C.

In the case of `CCOc1cc(Cc2cnc(N)nc2N)cc2c1OC(C)(C)C=C2C(C)(C)O`, the melting point was in the range of 209 to 210 °C.

Take `O=C1CCC(N2Cc3c(OCc4ccc(F)c(F)c4)cccc3C2=O)C(=O)N1` (stereo not drawn): the melting point lay within 228 to 230 °C.

Consider `CSC(C)=NOC(=O)N(C)SCCSN(C)C(=O)ON=C(SC)C(=O)N(C)C`, for which the melting point was 102 to 106 °C.

`OC1(Cc2ccccc2)CCN(CCC(c2ccccc2)(c2ccccc2)c2ccccc2)CC1` yielded a melting point of 72 to 74 °C.

`CN(NC(=O)OCc1ccccc1)C(=O)NCC(F)F` showed a melting point of 79 to 82 °C.

Regarding `NC(=O)NCC#CCN1CCCC1`, the melting point was in the range of 71 to 73 °C.

Take `COC(=O)c1ccc2c(c1)N(C(=O)N1CCC(c3cccnc3)C1)CCO2` (stereo not drawn): the melting point was found to be 61 °C.

As to `O=C(Cn1sc2ccccc2c1=O)N1CCN(C(=O)OCc2ccccc2)CC1`, the melting point was in the range of 138 to 142 °C.

`CCCc1ccc2oc(CCc3ccc(OC)cc3)c(C)c2c1O` gave a melting point of 77 to 79 °C.

In turn, `COC(=O)C(C(=O)OC)C(Cc1cc(Cl)ccc1N)c1ccc(OC)cc1` (stereo not drawn) had a melting point of 114 to 116 °C.

`CN(C)c1nc2sc3c(NCc4ccco4)ncnc3c2c2c1CCC2(C)C`: the melting point lay within 89.3 to 91 °C.

In turn, `Cc1nc(Cl)c([N+](=O)[O-])c(NCC(C)(C)NC(=O)OC(C)(C)C)c1C` gave a melting point of 97 to 100 °C.

In turn, `Cc1cc(=O)oc2nn(Cc3cccnc3)c(C)c12` gave a melting point of 191 to 193 °C.

`CCCn1nc2c(N)nc3ccccc3c2c1CCCc1cc(C)no1` gave a melting point of 183 to 184 °C.

`O=C(Cc1ccc(OC2Cc3ccccc3C2)cc1)NC1(C(=O)O)Cc2ccc(-c3ccc(Cl)cc3)cc2C1` (stereo not drawn) returned a melting point of 233 to 234 °C.

For `CCc1cc(-c2cccnc2)nn1-c1ccc(NC(=O)c2cc3ccccc3n2C)cc1`, the melting point lay in the range of 178 to 179 °C.

`O=C(O)c1ccc(COc2ccc3cc(-c4ccc(-c5ccccc5)n4Cc4ccc(C(F)(F)F)cc4)ccc3c2)cc1` gave a melting point of 228 to 229 °C.

As for `CCn1c(=O)c(CC(=O)OC)cc2ccc(O)cc21`, the melting point is 176 to 178 °C.

Turning to `CCOC(=O)c1cc2ccc([Si](C)(C)C)cc2n1Cc1cccc(F)c1`, the melting point lay in the range of 87 to 88 °C.

Take `CN1C(C(=O)Nc2cccccc2=O)=C(O)c2sccc2S1(=O)=O`: the melting point was in the range of 242 to 245 °C.

For `NS(=O)(=O)c1cc2cc(C=O)sc2s1`, the melting point was in the range of 188 to 189 °C.

In the case of `CCOCc1nc2c(N)nc3ccc(O)cc3c2n1CC(C)(C)NS(C)(=O)=O`, the melting point is 252 to 254 °C.

The compound `O=C(NC(=O)c1ccco1)C(=O)Oc1ccc([N+](=O)[O-])cc1` showed a melting point of 115 °C.

`COC(=O)c1cc(CSc2ccccc2)cnc1C1=NC(C)(C(C)C)C(=O)N1` (stereo not drawn) had a melting point of 135 to 138 °C.

`C=CCc1cc(C(=O)OCC)ccc1NC(C)=O` displayed a melting point of 127 to 128 °C.

For the compound `CC(C)(C)c1cc(NC(=O)NCc2ccc(N)cc2)cc(C(C)(C)C)c1O`, the melting point fell in the range of 194 to 195 °C.

Regarding `CC(=O)SCCC(=O)N1C(C(=O)O)CC(=O)N1c1ccccc1` (stereo not drawn), the melting point lay in the range of 144 to 146 °C.

In turn, `N#CCC(=O)c1ccccc1C1(c2ccccc2)OCC(CCl)O1` (stereo not drawn) returned a melting point of 107 to 110 °C.

In turn, `NC(=O)Nc1nc2n(n1)Cc1ccccc1-2` registered a melting point of 261 to 263 °C.

The compound `CN1CCN2C(=O)c3ccccc3C12c1ccccc1` (stereo not drawn) yielded a melting point of 120 to 122 °C.

`O=C(O)CCc1cc2cc(Cl)ccc2n1S(=O)(=O)c1cccc(C(F)(F)F)c1` registered a melting point of 203 to 206 °C.

As for `CC(C)(C)c1cc2c(c(C(C)(C)C)c1)OC(=O)C2c1ccc(OCC(=O)O)cc1` (stereo not drawn), the melting point fell in the range of 158 to 162 °C.

`Cn1nc(-c2cc(C=NOCC(=O)O)c(Cl)cc2F)c(Cl)c1C(F)(F)F` gave a melting point of 170 °C.

Compound `CC1CN(c2ccccc2)N=C1N` (stereo not drawn) registered a melting point of 83 to 84 °C.

For the origin of these results see a melting point compilation (Tetko et al.; mined from patent text by program, amines drawn as free bases though some values may be those of a salt).
